Reference: the NIST ThermoML archive (doi:10.1021/je200195q)
Numbers after ± are expanded uncertainties.

Assay: activity coefficient (dimensionless); of the first substance listed, at infinite dilution; xn = mol fraction of the nth substance listed
Settings: 101 kPa, Liquid, Chromatography, x1 = 0

C#CCCCC [1-hexyne] + CCCCCCCCCCn1cc[n+](CCCCCCCCCC)c1C.O=S(=O)([N-]S(=O)(=O)C(F)(F)F)C(F)(F)F
activity coefficient (323.1 K): 0.925 ± 0.058
activity coefficient (333.15 K): 0.917 ± 0.058
activity coefficient (343.15 K): 0.899 ± 0.057

C#CCCCC [1-hexyne] + CCCCCC[n+]1ccn(C)c1.FC(F)(F)C(F)(F)[P-](F)(F)(F)(C(F)(F)C(F)(F)F)C(F)(F)C(F)(F)F
activity coefficient (312.8 K): 1.94 ± 0.13
activity coefficient (332.85 K): 1.89 ± 0.13
activity coefficient (354.65 K): 1.75 ± 0.12

C#CCCCC [1-hexyne] + CCCCn1cc[n+](C)c1.O=S(=O)([N-]S(=O)(=O)C(F)(F)C(F)(F)F)C(F)(F)C(F)(F)F
activity coefficient (322.55 K): 2.86 ± 0.2
activity coefficient (342.75 K): 2.73 ± 0.19
activity coefficient (362.65 K): 2.64 ± 0.18

CCC[N+](=O)[O-] [1-nitropropane] + CCCCCCCCCCn1cc[n+](CCCCCCCCCC)c1C.O=S(=O)([N-]S(=O)(=O)C(F)(F)F)C(F)(F)F
activity coefficient (323.1 K): 0.504 ± 0.038
activity coefficient (333.15 K): 0.487 ± 0.037
activity coefficient (343.15 K): 0.479 ± 0.037

CCC[N+](=O)[O-] [1-nitropropane] + CCCCCC[n+]1ccn(C)c1.FC(F)(F)C(F)(F)[P-](F)(F)(F)(C(F)(F)C(F)(F)F)C(F)(F)C(F)(F)F
activity coefficient (312.8 K): 0.452 ± 0.036
activity coefficient (332.85 K): 0.451 ± 0.036
activity coefficient (354.65 K): 0.436 ± 0.035

CCC[N+](=O)[O-] [1-nitropropane] + CCCCn1cc[n+](C)c1.O=S(=O)([N-]S(=O)(=O)C(F)(F)C(F)(F)F)C(F)(F)C(F)(F)F
activity coefficient (322.55 K): 0.769 ± 0.05
activity coefficient (342.75 K): 0.821 ± 0.053
activity coefficient (362.65 K): 0.756 ± 0.05

CCC[N+](=O)[O-] [1-nitropropane] + CCn1cc[n+](C)c1.CS(=O)(=O)[O-]
activity coefficient (312.55 K): 4.19 ± 0.28
activity coefficient (322.45 K): 2.7 ± 0.18
activity coefficient (332.45 K): 1.73 ± 0.12

OCC(F)(F)F [2,2,2-trifluoroethanol] + CCCCCCCCCCn1cc[n+](CCCCCCCCCC)c1C.O=S(=O)([N-]S(=O)(=O)C(F)(F)F)C(F)(F)F
activity coefficient (323.1 K): 0.399 ± 0.034
activity coefficient (333.15 K): 0.379 ± 0.033
activity coefficient (343.15 K): 0.355 ± 0.032

OCC(F)(F)F [2,2,2-trifluoroethanol] + CCCCCC[n+]1ccn(C)c1.FC(F)(F)C(F)(F)[P-](F)(F)(F)(C(F)(F)C(F)(F)F)C(F)(F)C(F)(F)F
activity coefficient (312.8 K): 0.987 ± 0.062
activity coefficient (332.85 K): 0.891 ± 0.057
activity coefficient (354.65 K): 0.728 ± 0.048

OCC(F)(F)F [2,2,2-trifluoroethanol] + CCCCn1cc[n+](C)c1.O=S(=O)([N-]S(=O)(=O)C(F)(F)C(F)(F)F)C(F)(F)C(F)(F)F
activity coefficient (322.55 K): 0.457 ± 0.036
activity coefficient (342.75 K): 0.412 ± 0.034
activity coefficient (362.65 K): 0.373 ± 0.033

CC(C)CC(C)(C)C [2,2,4-trimethylpentane] + CCCCCC[n+]1ccn(C)c1.FC(F)(F)C(F)(F)[P-](F)(F)(F)(C(F)(F)C(F)(F)F)C(F)(F)C(F)(F)F
activity coefficient (312.8 K): 7.98 ± 0.54
activity coefficient (332.85 K): 7.13 ± 0.49
activity coefficient (354.65 K): 6.18 ± 0.42

CC(C)CC(C)(C)C [2,2,4-trimethylpentane] + CCCCn1cc[n+](C)c1.O=S(=O)([N-]S(=O)(=O)C(F)(F)C(F)(F)F)C(F)(F)C(F)(F)F
activity coefficient (322.55 K): 13.3 ± 0.91
activity coefficient (342.75 K): 11.7 ± 0.8
activity coefficient (362.65 K): 10.5 ± 0.72

CC(C)CC(C)(C)C [2,2,4-trimethylpentane] + CCn1cc[n+](C)c1.CS(=O)(=O)[O-]
activity coefficient (312.55 K): 445 ± 31
activity coefficient (322.45 K): 387 ± 27
activity coefficient (332.45 K): 334 ± 23

CC(C)CO [2-methyl-1-propanol] + CCCCCCCCCCn1cc[n+](CCCCCCCCCC)c1C.O=S(=O)([N-]S(=O)(=O)C(F)(F)F)C(F)(F)F
activity coefficient (323.1 K): 1.3 ± 0.084
activity coefficient (333.15 K): 1.17 ± 0.075
activity coefficient (343.15 K): 1.06 ± 0.067

CC(C)CO [2-methyl-1-propanol] + CCCCCC[n+]1ccn(C)c1.FC(F)(F)C(F)(F)[P-](F)(F)(F)(C(F)(F)C(F)(F)F)C(F)(F)C(F)(F)F
activity coefficient (312.8 K): 2.77 ± 0.19
activity coefficient (332.85 K): 2.13 ± 0.14
activity coefficient (354.65 K): 1.62 ± 0.11

CC(C)CO [2-methyl-1-propanol] + CCCCn1cc[n+](C)c1.O=S(=O)([N-]S(=O)(=O)C(F)(F)C(F)(F)F)C(F)(F)C(F)(F)F
activity coefficient (322.55 K): 2.26 ± 0.15
activity coefficient (342.75 K): 1.84 ± 0.12
activity coefficient (362.65 K): 1.57 ± 0.1

CCC(C)CC [3-methylpentane] + CCCCCCCCCCn1cc[n+](CCCCCCCCCC)c1C.O=S(=O)([N-]S(=O)(=O)C(F)(F)F)C(F)(F)F
activity coefficient (323.1 K): 1.71 ± 0.11
activity coefficient (333.15 K): 1.68 ± 0.11
activity coefficient (343.15 K): 1.63 ± 0.11

CCC(C)CC [3-methylpentane] + CCCCCC[n+]1ccn(C)c1.FC(F)(F)C(F)(F)[P-](F)(F)(F)(C(F)(F)C(F)(F)F)C(F)(F)C(F)(F)F
activity coefficient (312.8 K): 5.63 ± 0.38
activity coefficient (332.85 K): 5.05 ± 0.34
activity coefficient (354.65 K): 4.43 ± 0.3

CCC(C)CC [3-methylpentane] + CCCCn1cc[n+](C)c1.O=S(=O)([N-]S(=O)(=O)C(F)(F)C(F)(F)F)C(F)(F)C(F)(F)F
activity coefficient (322.55 K): 8.23 ± 0.56
activity coefficient (342.75 K): 7.79 ± 0.53
activity coefficient (362.65 K): 7.62 ± 0.52

CCC(C)CC [3-methylpentane] + CCn1cc[n+](C)c1.CS(=O)(=O)[O-]
activity coefficient (312.55 K): 157 ± 11
activity coefficient (322.45 K): 135 ± 9.3
activity coefficient (332.45 K): 115 ± 7.9

CC#N [acetonitrile] + CCCCCCCCCCn1cc[n+](CCCCCCCCCC)c1C.O=S(=O)([N-]S(=O)(=O)C(F)(F)F)C(F)(F)F
activity coefficient (323.1 K): 0.47 ± 0.037
activity coefficient (333.15 K): 0.453 ± 0.036
activity coefficient (343.15 K): 0.44 ± 0.035

CC#N [acetonitrile] + CCCCCC[n+]1ccn(C)c1.FC(F)(F)C(F)(F)[P-](F)(F)(F)(C(F)(F)C(F)(F)F)C(F)(F)C(F)(F)F
activity coefficient (312.8 K): 0.295 ± 0.031
activity coefficient (332.85 K): 0.295 ± 0.031
activity coefficient (354.65 K): 0.292 ± 0.031

CC#N [acetonitrile] + CCCCn1cc[n+](C)c1.O=S(=O)([N-]S(=O)(=O)C(F)(F)C(F)(F)F)C(F)(F)C(F)(F)F
activity coefficient (322.55 K): 0.528 ± 0.039
activity coefficient (342.75 K): 0.514 ± 0.038
activity coefficient (362.65 K): 0.504 ± 0.038

CC#N [acetonitrile] + CCn1cc[n+](C)c1.CS(=O)(=O)[O-]
activity coefficient (312.55 K): 1.26 ± 0.081
activity coefficient (322.45 K): 0.818 ± 0.053
activity coefficient (332.45 K): 0.836 ± 0.054

c1ccccc1 [benzene] + CCCCCCCCCCn1cc[n+](CCCCCCCCCC)c1C.O=S(=O)([N-]S(=O)(=O)C(F)(F)F)C(F)(F)F
activity coefficient (323.1 K): 0.429 ± 0.035
activity coefficient (333.15 K): 0.431 ± 0.035
activity coefficient (343.15 K): 0.434 ± 0.035

c1ccccc1 [benzene] + CCCCCC[n+]1ccn(C)c1.FC(F)(F)C(F)(F)[P-](F)(F)(F)(C(F)(F)C(F)(F)F)C(F)(F)C(F)(F)F
activity coefficient (312.8 K): 0.517 ± 0.039
activity coefficient (332.85 K): 0.552 ± 0.04
activity coefficient (354.65 K): 0.564 ± 0.041

c1ccccc1 [benzene] + CCCCn1cc[n+](C)c1.O=S(=O)([N-]S(=O)(=O)C(F)(F)C(F)(F)F)C(F)(F)C(F)(F)F
activity coefficient (322.55 K): 1.01 ± 0.063
activity coefficient (342.75 K): 1.02 ± 0.064
activity coefficient (362.65 K): 1.03 ± 0.065

CCCCO [butan-1-ol] + CCCCCCCCCCn1cc[n+](CCCCCCCCCC)c1C.O=S(=O)([N-]S(=O)(=O)C(F)(F)F)C(F)(F)F
activity coefficient (323.1 K): 1.38 ± 0.09
activity coefficient (333.15 K): 1.2 ± 0.077
activity coefficient (343.15 K): 1.12 ± 0.071

CCCCO [butan-1-ol] + CCCCCC[n+]1ccn(C)c1.FC(F)(F)C(F)(F)[P-](F)(F)(F)(C(F)(F)C(F)(F)F)C(F)(F)C(F)(F)F
activity coefficient (312.8 K): 4.9 ± 0.33
activity coefficient (332.85 K): 2.32 ± 0.16
activity coefficient (354.65 K): 1.76 ± 0.12

CCCCO [butan-1-ol] + CCCCn1cc[n+](C)c1.O=S(=O)([N-]S(=O)(=O)C(F)(F)C(F)(F)F)C(F)(F)C(F)(F)F
activity coefficient (322.55 K): 2.49 ± 0.17
activity coefficient (342.75 K): 2 ± 0.14
activity coefficient (362.65 K): 1.7 ± 0.11

CCCC=O [butanal] + CCn1cc[n+](C)c1.CS(=O)(=O)[O-]
activity coefficient (312.55 K): 4.87 ± 0.33
activity coefficient (322.45 K): 4.95 ± 0.34
activity coefficient (332.45 K): 3.51 ± 0.24

CCC(C)=O [butanone] + CCCCCCCCCCn1cc[n+](CCCCCCCCCC)c1C.O=S(=O)([N-]S(=O)(=O)C(F)(F)F)C(F)(F)F
activity coefficient (323.1 K): 0.318 ± 0.031
activity coefficient (333.15 K): 0.292 ± 0.031
activity coefficient (343.15 K): 0.264 ± 0.03

CCC(C)=O [butanone] + CCCCCC[n+]1ccn(C)c1.FC(F)(F)C(F)(F)[P-](F)(F)(F)(C(F)(F)C(F)(F)F)C(F)(F)C(F)(F)F
activity coefficient (312.8 K): 0.204 ± 0.029
activity coefficient (332.85 K): 0.195 ± 0.029
activity coefficient (354.65 K): 0.171 ± 0.029

CCC(C)=O [butanone] + CCCCn1cc[n+](C)c1.O=S(=O)([N-]S(=O)(=O)C(F)(F)C(F)(F)F)C(F)(F)C(F)(F)F
activity coefficient (322.55 K): 0.453 ± 0.036
activity coefficient (342.75 K): 0.389 ± 0.034
activity coefficient (362.65 K): 0.351 ± 0.032

C1CCCCCC1 [cycloheptane] + CCCCCCCCCCn1cc[n+](CCCCCCCCCC)c1C.O=S(=O)([N-]S(=O)(=O)C(F)(F)F)C(F)(F)F
activity coefficient (323.1 K): 3.17 ± 0.22
activity coefficient (333.15 K): 4.46 ± 0.3
activity coefficient (343.15 K): 6.09 ± 0.41

C1CCCCCC1 [cycloheptane] + CCCCCC[n+]1ccn(C)c1.FC(F)(F)C(F)(F)[P-](F)(F)(F)(C(F)(F)C(F)(F)F)C(F)(F)C(F)(F)F
activity coefficient (312.8 K): 9.01 ± 0.61
activity coefficient (332.85 K): 13.2 ± 0.9
activity coefficient (354.65 K): 28.7 ± 2

C1CCCCCC1 [cycloheptane] + CCCCn1cc[n+](C)c1.O=S(=O)([N-]S(=O)(=O)C(F)(F)C(F)(F)F)C(F)(F)C(F)(F)F
activity coefficient (322.55 K): 19.8 ± 1.4
activity coefficient (342.75 K): 35.2 ± 2.4
activity coefficient (362.65 K): 56.5 ± 3.9

C1CCCCC1 [cyclohexane] + CCCCCCCCCCn1cc[n+](CCCCCCCCCC)c1C.O=S(=O)([N-]S(=O)(=O)C(F)(F)F)C(F)(F)F
activity coefficient (323.1 K): 1.32 ± 0.085
activity coefficient (333.15 K): 1.28 ± 0.083
activity coefficient (343.15 K): 1.26 ± 0.081

C1CCCCC1 [cyclohexane] + CCCCCC[n+]1ccn(C)c1.FC(F)(F)C(F)(F)[P-](F)(F)(F)(C(F)(F)C(F)(F)F)C(F)(F)C(F)(F)F
activity coefficient (312.8 K): 4.78 ± 0.33
activity coefficient (332.85 K): 4.17 ± 0.28
activity coefficient (354.65 K): 3.62 ± 0.25

C1CCCCC1 [cyclohexane] + CCCCn1cc[n+](C)c1.O=S(=O)([N-]S(=O)(=O)C(F)(F)C(F)(F)F)C(F)(F)C(F)(F)F
activity coefficient (322.55 K): 7 ± 0.48
activity coefficient (342.75 K): 6.12 ± 0.42
activity coefficient (362.65 K): 5.41 ± 0.37
